Laboratory results: the NIST ThermoML archive (doi:10.1016/j.jct.2009.06.001)

Key:
[1] = mn = molality of the nth substance listed, in mol/kg; settings: 298.15 K, 101 kPa, Liquid; for speed of sound: Sing-around technique in a fixed-path interferometer; for mass density: Vibrating tube method
[2] = 298.15 K, 101.33 kPa, Liquid; for speed of sound: Sing-around technique in a fixed-path interferometer; for mass density: Vibrating tube method

c1ccccc1 [benzene] + CCCCCCC
[1]
Settings	mass density [kg/m3]	speed of sound [m/s]
m1 = 0.1915	681.6	1132.3
m1 = 0.3783	683.56	1133.2
m1 = 0.5615	685.43	1133.9
m1 = 0.7515	687.34	1134.8
m1 = 0.943	689.24	1135.8

c1ccc(-c2ccccc2)cc1 [biphenyl] + C1CCCCC1
[1]
Settings	mass density [kg/m3]	speed of sound [m/s]
m1 = 0.0342	774.82	1256
m1 = 0.0676	775.74	1256.7
m1 = 0.1061	776.79	1257.5
m1 = 0.1335	777.52	1258.1
m1 = 0.1732	778.61	1259

c1ccc(-c2ccccc2)cc1 [biphenyl] + CCCCCCC
[1]
Settings	mass density [kg/m3]	speed of sound [m/s]
m1 = 0.0409	681.02	1133
m1 = 0.0772	682.37	1134.4
m1 = 0.113	683.67	1135.6
m1 = 0.1561	685.21	1137
m1 = 0.1949	686.6	1138.3

C1CCCCC1 [cyclohexane]
[2]
Settings	mass density [kg/m3]	speed of sound [m/s]
–	773.87	1255.3

C1CCCCC1 [cyclohexane] + c1ccccc1
[1]
Settings	mass density [kg/m3]	speed of sound [m/s]
m2 = 0.162	774.73	1254.7
m2 = 0.3316	775.59	1254.2
m2 = 0.5187	776.54	1253.5
m2 = 0.6616	777.26	1253.2
m2 = 0.8272	778.07	1252.7

CCCCCCC [heptane]
[2]
Settings	mass density [kg/m3]	speed of sound [m/s]
–	679.55	1131.4

c1ccc(-c2cccc(-c3ccccc3)c2)cc1 [m-terphenyl] + C1CCCCC1
[1]
Settings	mass density [kg/m3]	speed of sound [m/s]
m1 = 0.0253	775.15	1256.5
m1 = 0.0482	776.28	1257.4
m1 = 0.0693	777.33	1258.2
m1 = 0.0928	778.48	1259.2
m1 = 0.1161	779.62	1260.1

c1ccc(-c2cccc(-c3ccccc3)c2)cc1 [m-terphenyl] + CCCCCCC
[1]
Settings	mass density [kg/m3]	speed of sound [m/s]
m1 = 0.0245	681.04	1133
m1 = 0.04	682	1133.8
m1 = 0.0536	682.83	1134.6
m1 = 0.0666	683.63	1135.3
m1 = 0.076	684.21	1135.9

c1ccc2ccccc2c1 [naphthalene] + C1CCCCC1
[1]
Settings	mass density [kg/m3]	speed of sound [m/s]
m1 = 0.0805	775.71	1256.5
m1 = 0.1659	777.64	1257.8
m1 = 0.2522	779.56	1259.1
m1 = 0.3257	781.18	1260.2
m1 = 0.4055	782.91	1261.5

c1ccc2ccccc2c1 [naphthalene] + CCCCCCC
[1]
Settings	mass density [kg/m3]	speed of sound [m/s]
m1 = 0.0934	682.41	1134.3
m1 = 0.1975	685.54	1137.2
m1 = 0.2708	687.7	1139.1
m1 = 0.3725	690.68	1141.8
m1 = 0.4561	693.03	1144

c1ccc(-c2ccccc2-c2ccccc2)cc1 [o-terphenyl] + C1CCCCC1
[1]
Settings	mass density [kg/m3]	speed of sound [m/s]
m1 = 0.0245	775.07	1256.1
m1 = 0.0451	776.06	1256.8
m1 = 0.0688	777.19	1257.5
m1 = 0.093	778.35	1258.4
m1 = 0.1144	779.36	1259

c1ccc(-c2ccccc2-c2ccccc2)cc1 [o-terphenyl] + CCCCCCC
[1]
Settings	mass density [kg/m3]	speed of sound [m/s]
m1 = 0.0267	681.11	1132.8
m1 = 0.0392	681.85	1133.5
m1 = 0.0544	682.75	1134.1
m1 = 0.0652	683.4	1134.6
m1 = 0.0763	684.05	1135.2

c1ccc2c(c1)ccc1ccccc12 [phenanthrene] + C1CCCCC1
[1]
Settings	mass density [kg/m3]	speed of sound [m/s]
m1 = 0.0343	775.27	1256.4
m1 = 0.0591	776.28	1257.2
m1 = 0.0896	777.54	1258.2
m1 = 0.1162	778.63	1259
m1 = 0.1455	779.78	1259.8

c1ccc2c(c1)ccc1ccccc12 [phenanthrene] + CCCCCCC
[1]
Settings	mass density [kg/m3]	speed of sound [m/s]
m1 = 0.0349	681.3	1133.2
m1 = 0.0513	682.12	1134
m1 = 0.0739	683.26	1135
m1 = 0.0812	683.59	1135.3
m1 = 0.1012	684.63	1136.2
